Measured values as given in patent US6436874B1, “Synergistic herbicidal agents based on leaf herbicides containing phosphorus, imidazolinones and hormone weed killers” (priority 1998, dated 2002).
Like-named read-outs stand apart in the source and are kept apart here.

What was measured:
Assay type in all cases: in vivo
[1] = test system: Hedyotis verticillata; assay: Field trial, herbicidal activity against Hedyotis verticillata in oil palm plantation; settings: for inhibition at 50 g/ha: Scleromitrion verticillatum, No. 14, dose 50 g of AS/ha, read-out: Herbicidal activity (%), w. after appl.
Method: (§1) In an oil palm plantation, the economically important tropical weed Hedyotis verticillata was grown on plots of the dimensions 2×5 m under natural outdoor conditions and treated with the herbicides A1.2, B1 and C1 or their mixtures in a tank mix under standard conditions using a plot sprayer, at a water application rate of 450 liters of water per hectare (over-the-top application to the weeds; plant density initially more than 95% ground coverage). At intervals of 1, 2, 3, 4, 5, 6, 7 and 8 weeks after the application, the herbicidal efficacy of the active compounds or active compound mixtures was evaluated visually on the basis of the treated plots, in comparison with untreated control plots. The damage to and development of all above-ground parts of the plants were recorded. Evaluation was carried out using a percentage scale (100% effect=all plants killed; 50% effect=50% of the plants and the green parts of the plants killed; 0% effect=no noticeable effect=like control plot). The evaluation values of in each case 4 plots were averaged.

[2] = test system: Asystasia intrusa; assay: Field trial, herbicidal activity against Asystasia intrusa in rubber tree plantation; settings: for Activity (%), w. after appl.: No. 16, dose 40 g of AS/ha; for inhibition at 50 g/ha: Asystasia intrusa, No. 3, dose 50 g of AS/ha
Method: as §1
In a rubber tree plantation, plots with the tropical weed Asystasia intrusa were grown under natural outdoor conditions (dimensions of the plots 2 x 5 m). The herbicides or their mixtures in a tank mix were applied under standard conditions (over-the-top application using a plot sprayer, water application rate 450 l/ha). In intervals of 4, 7, 13, 17 and 21 weeks after the application, the herbicidal efficacy of the active compounds or their mixtures was evaluated visually on the basis of the treated plots, in comparison with untreated control plots. The damage to and the development of all above-ground parts of the plants were recorded. Evaluation was carried out as described in Example 1.

[3] = test system: Axonopus compressus; assay: Field trial, herbicidal activity against Axonopus compressus in rubber tree plantation; settings: for Activity (%), w. after appl.: No. 16, dose 40 g of AS/ha; for inhibition at 50 g/ha: Axonopus compressus, No. 3, dose 50 g of AS/ha
Method: as §1
In a rubber tree plantation, plots with the tropical weed Axonopus compressus were grown under natural outdoor conditions (plot dimensions 2×5 m). The herbicides or their mixtures in a tank mix were applied under standard conditions using a plot spayer at a water application rate of 450 liters of water per hectare (over-the-top application). At intervals of 4, 7, 13, 17 and 21 weeks after the application, the herbicidal efficacy of the active compounds or active compound mixtures was evaluated visually on the basis of the treated plots, in comparison with untreated control plots. The damage to and development of all above-ground parts of the plants were recorded. Evaluation was carried out as described in Example 1.

## O=C([O-])COc1ccc(Cl)cc1Cl.[Na+] [C1, 2,4-D-sodium salt]
[1]; No. 15, dose 40 g of AS/ha, 1 w. after appl.
  Herbicidal activity (%), w. after appl.: 6%
[1]; No. 15, dose 40 g of AS/ha, 2 w. after appl.
  Herbicidal activity (%), w. after appl.: 5%
[1]; No. 15, dose 40 g of AS/ha, 3 w. after appl.
  Herbicidal activity (%), w. after appl.: 5%
[1]; No. 15, dose 40 g of AS/ha, 4 w. after appl.
  Herbicidal activity (%), w. after appl.: 4%
[1]; No. 15, dose 40 g of AS/ha, 5 w. after appl.
  Herbicidal activity (%), w. after appl.: 0%
[1]; No. 15, dose 40 g of AS/ha, 6 w. after appl.
  Herbicidal activity (%), w. after appl.: 0%
[1]; No. 15, dose 40 g of AS/ha, 7 w. after appl.
  Herbicidal activity (%), w. after appl.: 0%
[1]; No. 15, dose 40 g of AS/ha, 8 w. after appl.
  Herbicidal activity (%), w. after appl.: 0%
[1]; No. 16, dose 20 g of AS/ha, 1 w. after appl.
  Herbicidal activity (%), w. after appl.: 6%
[1]; No. 16, dose 20 g of AS/ha, 2 w. after appl.
  Herbicidal activity (%), w. after appl.: 5%
[1]; No. 16, dose 20 g of AS/ha, 3 w. after appl.
  Herbicidal activity (%), w. after appl.: 5%
[1]; No. 16, dose 20 g of AS/ha, 4 w. after appl.
  Herbicidal activity (%), w. after appl.: 1%
[1]; No. 16, dose 20 g of AS/ha, 5 w. after appl.
  Herbicidal activity (%), w. after appl.: 0%
[1]; No. 16, dose 20 g of AS/ha, 6 w. after appl.
  Herbicidal activity (%), w. after appl.: 0%
[1]; No. 16, dose 20 g of AS/ha, 7 w. after appl.
  Herbicidal activity (%), w. after appl.: 0%
[1]; No. 16, dose 20 g of AS/ha, 8 w. after appl.
  Herbicidal activity (%), w. after appl.: 0%
[2]; 4 w. after appl.
  Activity (%), w. after appl.: 77%
[2]; 7 w. after appl.
  Activity (%), w. after appl.: 67%
[2]; 13 w. after appl.
  Activity (%), w. after appl.: 20%
[2]; 17 w. after appl.
  Activity (%), w. after appl.: 10%
[2]; 21 w. after appl.
  Activity (%), w. after appl.: 8%
[3]; 4 w. after appl.
  Activity (%), w. after appl.: 5%
[3]; 7 w. after appl.
  Activity (%), w. after appl.: 5%
[3]; 13 w. after appl.
  Activity (%), w. after appl.: 0%
[3]; 17 w. after appl.
  Activity (%), w. after appl.: 0%
[3]; 21 w. after appl.
  Activity (%), w. after appl.: 0%

## CC(C)C1(C)N=C(c2ncccc2C(=O)O)NC1=O (centres unmarked) [B1, Imazapyr]
[1]; 1 w. after appl.
  inhibition at 50 g/ha: 8%
[1]; 2 w. after appl.
  inhibition at 50 g/ha: 5%
[1]; 3 w. after appl.
  inhibition at 50 g/ha: 5%
[1]; 4 w. after appl.
  inhibition at 50 g/ha: 5%
[1]; 5 w. after appl.
  inhibition at 50 g/ha: 10%
[1]; 6 w. after appl.
  inhibition at 50 g/ha: 13%
[1]; 7 w. after appl.
  inhibition at 50 g/ha: 15%
[1]; 8 w. after appl.
  inhibition at 50 g/ha: 15%
[2]; 4 w. after appl.
  inhibition at 50 g/ha: 45%
[2]; 7 w. after appl.
  inhibition at 50 g/ha: 40%
[2]; 13 w. after appl.
  inhibition at 50 g/ha: 40%
[2]; 17 w. after appl.
  inhibition at 50 g/ha: 47%
[2]; 21 w. after appl.
  inhibition at 50 g/ha: 53%
[3]; 4 w. after appl.
  inhibition at 50 g/ha: 35%
[3]; 7 w. after appl.
  inhibition at 50 g/ha: 35%
[3]; 13 w. after appl.
  inhibition at 50 g/ha: 45%
[3]; 17 w. after appl.
  inhibition at 50 g/ha: 45%
[3]; 21 w. after appl.
  inhibition at 50 g/ha: 50%
